Experimental data as given in PMC3428805 (Journal of Medicinal Chemistry, 2012).
Read-outs that look alike come from different tables or passages of the source.

How the values were obtained:
K562 cells = assay: cells; format: cell-based; conditions: Homo sapiens, K562, 72 h
[1] = Human microsomal stability; conditions: human microsomes, 3 µM
[2] = Mouse microsomal stability; conditions: mouse microsomes, 3 µM
[3] = Human hepatocyte stability; conditions: cryopreserved hepatocytes, 3 µM
[4] = Human plasma protein binding, equilibrium dialysis; conditions: 50%
[5] = log P and pKa, potentiometric method
[6] = Evaluation of acid stability at pH = 1 by LC-HRMS; format: physicochemical; conditions: for hydrolysis / decomposition at pH 1.0: pH 1.0, in words
Eg5 = target: T1, Eg5 (Homo sapiens, UniProt P52732)
T1 sequence (P52732 1-368): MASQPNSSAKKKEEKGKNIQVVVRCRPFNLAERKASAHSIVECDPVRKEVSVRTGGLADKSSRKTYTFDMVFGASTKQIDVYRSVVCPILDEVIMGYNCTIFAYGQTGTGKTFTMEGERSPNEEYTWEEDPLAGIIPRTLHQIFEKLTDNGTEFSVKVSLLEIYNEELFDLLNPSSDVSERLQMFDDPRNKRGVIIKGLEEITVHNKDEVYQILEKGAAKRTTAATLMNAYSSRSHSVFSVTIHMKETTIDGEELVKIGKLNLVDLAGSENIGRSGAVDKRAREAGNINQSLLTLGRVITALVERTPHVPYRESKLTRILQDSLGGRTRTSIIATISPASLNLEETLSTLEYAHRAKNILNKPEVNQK

[7] = Parallel artificial membrane permeability assay; format: in vitro ADME; conditions: passive permeability
log D7.4 = conditions: n-octanol/buffer, pH 7.4
[8] = calculated from Ki^app of basal ATPase inhibition

Cc1ccc(C(CCC(N)C(=O)O)(c2ccccc2)c2ccccc2)cc1 (racemic) [rac-32, 2-Amino-5,5-diphenyl-5-(4-methylphenyl)pentanoic acid] gave a GI50 (K562 cells; read-out: K562 cells, GI50, 72 h, Alamar blue) of 98 ± 5 nM.

For Cc1cccc(C(CC[C@@H](N)C(=O)O)(c2ccccc2)c2ccccc2)c1 [(R)-29], the GI50 (K562 cells; read-out: K562 cells, GI50) was 91 ± 9 nM, the “microsomal stability, Clint, human” value [1] was “stable” and the “microsomal stability, Clint, mice” value [2] was “stable”. For the same molecule, the “human hepatocytes, intrinsic clearance” value [3] was “stable”, the recovery at 5 µM [4] was 50.1% and the pKa ([5]; pKa 1) was 9.07. The pKa ([5]; pKa 2) was 2.55.

With Cc1cccc(C(CC[C@H](N)C(=O)O)(c2ccccc2)c2ccccc2)c1 [(S)-29] the GI50 (K562 cells; read-out: K562 cells, GI50) was 128 ± 15 nM, the “microsomal stability, Clint, human” value [1] was “stable” and the “microsomal stability, Clint, mice” value [2] was “stable”. The “human hepatocytes, intrinsic clearance” value [3] was “stable”, the recovery at 5 µM [4] was 52.3% and the pKa ([5]; pKa 1) was 9.07. It also gave a pKa ([5]; pKa 2) of 2.55.

With N[C@@H](CSC(c1ccccc1)(c1ccccc1)c1ccccc1)C(=O)O [compound 1, S-trityl-L-cysteine, reference compound] the “t1/2, acid stability” value ([6]; pH 1.0, 0-24 h, LC-HRMS) was “stable”.

Work on NCCSC(c1ccccc1)(c1ccccc1)c1ccccc1 [compound 2, 2-(Tritylsulfanyl)ethanamine] yielded a ligand efficiency (Eg5) of 0.39.

For NCCOC(c1ccccc1)(c1ccccc1)c1ccccc1 [compound 6, 2-(Trityloxy)ethanamine], the “hydrolysis / decomposition at pH 1.0” value [6] was “decomposed after 16 h”.

For N[C@@H](CNC(c1ccccc1)(c1ccccc1)c1ccccc1)C(=O)O [compound 7, (2 S)-2-Amino-3-(tritylamino)propanoic acid], the “hydrolysis / decomposition at pH 1.0” value [6] was “completely hydrolyzed”.

In the case of NCCNC(c1ccccc1)(c1ccccc1)c1ccccc1 [compound 8, N-Tritylethane-1,2-diamine], the ligand efficiency (Eg5) is reported as 0.33 and the “hydrolysis / decomposition at pH 1.0” value [6] is reported as “completely hydrolyzed”.

With NCCCC(c1ccccc1)(c1ccccc1)c1ccccc1 [compound 10, 4,4,4-Triphenylbutan-1-amine] the “stability at pH 1.0” value ([6]; 5 days at pH 1.0) was “stable”.

NCCSC(c1ccccc1)(c1ccccc1)c1cccc(F)c1 [compound 12, 2-(((3-Fluorophenyl)(diphenyl)methyl)sulfanyl)ethanamine] gave a ligand efficiency (Eg5; [8]) of 0.36.

For N[C@@H](CSC(c1ccccc1)(c1ccccc1)c1cccc(Cl)c1)C(=O)O [compound 13, (2 R)-2-Amino-3-(((3-chloroxyphenyl)(diphenyl)methyl)sulfanyl)propanoic acid], the ligand efficiency (Eg5; [8]) was 0.36.

NCCSC(c1ccccc1)(c1ccccc1)c1cccc(Cl)c1 [compound 14, 2-(((3-Chlorophenyl)(diphenyl)methyl)sulfanyl)ethanamine] showed a ligand efficiency (Eg5; [8]) of 0.37.

Molecule COc1cccc(C(SCCN)(c2ccccc2)c2ccccc2)c1 [compound 21, 2-(((3-Methoxyphenyl)(diphenyl)methyl)sulfanyl)ethanamine] has a ligand efficiency (Eg5; [8]) of 0.37.

With N[C@@H](CSC(c1ccccc1)(c1ccccc1)c1cccc(O)c1)C(=O)O [compound 35, (2 R)-2-Amino-3-(((3-hydroxyphenyl)(diphenyl)methyl)sulfanyl)propanoic acid] the “PAMPA Papp” value [7] was “no permeability recorded”.

In the case of NC(=O)c1cccc(C(SC[C@H](N)C(=O)O)(c2ccccc2)c2ccccc2)c1 [compound 41, (R)-2-amino-3-(((3-carbamoylphenyl)diphenylmethyl)sulfanyl)propanoic acid], the logD (log D7.4) is reported as 1.13 and the “PAMPA Papp” value [7] is reported as “no membrane diffusion detected”.

With Cc1ccc(C(=O)N(CCCN)[C@@H](c2nc3cc(Cl)ccc3c(=O)n2Cc2ccccc2)C(C)C)cc1 [compound 54, ispinesib, reference compound] the “microsomal stability, Clint, human” value [1] was “stable”, the “microsomal stability, Clint, mice” value [2] was “stable” and the recovery at 5 µM [4] was 50.6%.
